Reference: US10350210B2, “EGFR and ALK dual inhibitor” (PRECEDO PHARMACEUTICALS CO., LTD, priority 2015, dated 2019)

Tests used:
[1] = tested on: NCI-H3122; assay: Effect on cell cycle (PI staining, flow cytometer), NCI-H3122; assay type: cell-based, human; conditions: NCI-H3122 (ALK gene), 24 hours
Source text: In order to study which growth phase the cell was halted after administration of the drugs, five cell lines including non-small cell lung cancer cell line A549 (expressing wild-type EGFR gene), non-small cell lung cancer cell line H1975 (expressing EGFR L858R/T790M double mutant gene), non-small cell Lung cancer cell line PC-9 (expressing EGFR delE746_A750 mutant gene), non-small cell lung cancer cell line H3255 (expressing EGFR L858R mutant gene) and non-small cell lung cancer cell NCI-H3122 (expressing ALK gene) were tested for effect of Compound 1 on cell cycle distribution. Two cell lines including non-small cell lung cancer cell NCI-H3122 (expressing ALK gene) and non-small cell lung cancer cell H1975 (expressing EGFR L858R/T790M double mutant gene) were tested for effect of Compound 10 on cell cycle distribution. […]

[2] = tested on: non-small cell lung cancer cell H3122 subcutaneous tumors; assay: Mouse tumor model of non-small cell lung cancer cell H3122; assay type: in vivo; conditions: for tumor inhibition rate: Bal b/c mice
Description: Similarly, 72 Bal b/c female mice, 4-6 weeks old, were purchased from Shanghai SLAC Laboratory Animal Co., Ltd., and maintained in an SPF laboratory. Drinking water and bedding were both sterilized by autoclaving. All operations involving the mice were performed under aseptic conditions. At day 0, 5×10^6 non-small cell lung cancer cells H3122 (purchased from ATCC) were injected subcutaneously into the left flank of all mice. At day 15, all mice were divided into eight groups (9 mice per group), and the first group of mice were orally administered with methyl cellulose (HKI) solvent, the second group of mice were orally administered with Compound 1 at a dose of 5 mg/kg mouse weight, the third group of mice were orally administered with Compound 1 at a dose of 10 mg/kg mouse weight, the fourth group of mice were orally administered with Compound 1 at a dose of 20 mg/kg mouse weight, the fifth group of mice were orally administered with methyl cellulose (HKI) solvent, the sixth group of mice were orally administered with Compound 10 at a dose of 10 mg/kg mouse weight, the seventh group of mice were orally administered with Compound 10 at a dose of 20 mg/kg mouse weight, and the eighth group of mice were orally administered with Compound 10 at a dose of 40 mg/kg mouse weight daily. Starting from the administration, the length/width of the subcutaneous tumor was measured daily with a vernier caliper, and the weight of the mice was recorded daily to observe the effect of Compounds 1 and 10 on the body weight of the mice. For the first to fourth groups, the mice were sacrificed at day 36 and the subcutaneous tumors were collected. The tumors were weighed, and then the tumor tissues were used to prepare protein lysates for use. The growth trend of the subcutaneous tumor within 16-36 days was plotted, wherein the tumor volume was calculated as length×width×width/2 mm^3. For the fifth to eighth groups, the mice were sacrificed at day 43 and the subcutaneous tumors were collected. The tumors were weighed, and then the tumor tissues were used to prepare protein lysates for use. The growth trend of the subcutaneous tumor within 16-43 days was plotted, wherein the tumor volume was calculated as length×width×width/2 mm^3.

For `C=CC(=O)Nc1cc(Nc2ncc(Cl)c(Nc3ccccc3S(=O)(=O)C(C)C)n2)c(OC)cc1N1CCN(CC)CC1` [Compound 1, N-(5-(5-chloro-4-(2-(isopropylsulfonyl)phenylamino)pyrimidin-2-ylamino)-2-(4-ethylpiperazin-1-yl)-4-methoxyphenyl)acrylamide], the “effect on cell cycle distribution” value [1] was “halt the cells in G0-G1 phase”, the tumor inhibition rate ([2]; oral daily 10 mg/kg, on the second day of administration) was 61.5% and the tumor inhibition rate ([2]; oral daily 20 mg/kg) was 77.7%. For the same molecule, the “body weight of the mice” value ([2]; oral daily 10 mg/kg) was “did not decrease”.

With `C=CC(=O)Nc1cc(Nc2ncc(Cl)c(Nc3ccccc3S(=O)(=O)C(C)C)n2)c(OC)cc1N1CCCN(C)CC1` [Compound 10, N-(5-(5-chloro-4-(2-(isopropylsulfonyl)phenylamino)pyrimidin-2-ylamino)-4-methoxy-2-(4-methyl-1,4-homopiperazin-1-yl)phenyl)acrylamide] the “effect on cell cycle distribution” value [1] was “halt the cells in G0-G1 phase”, the tumor inhibition rate ([2]; oral daily 20 mg/kg) was 68.3% and the tumor inhibition rate ([2]; oral daily 40 mg/kg) was 78.4%. For the same molecule, the “body weight of the mice” value ([2]; oral daily 20 mg/kg) was “did not decrease” and the “body weight of the mice” value ([2]; oral daily 40 mg/kg) was “did not decrease”.
